Data taken from patent US9321759B2, “Methods and use of bifunctional enzyme-building clamp-shaped molecules” (The Trustees Of The University Of Pennsylvania, priority 2011, dated 2016).

Legend:
[1] = target: T1, EGFR (L858R, T790M) (Homo sapiens, UniProt P00533, L858R/T790M); test: Kinase assay with Tarceva-resistant EGFR mutant, HotSpot technology; type: biochemical
T1 construct: purchased Reaction Biology Corp. (Malvern, Pa.)
Experimental: (§1) In an additional set of tests, EGFR assays were done to determine IC50 values using HotSpot^SM technology with the peptide substrate poly[Glu:Tyr] (4:1, 0.2 mg/ml). These tests were conducted by Reaction Biology Corp. (Malvern, Pa.; http://www.reactionbiology.com). Kinase reactions were carried out in 20 mmol/L HEPES (pH 7.5), 10 mmol/L MgCl2, 1 mmol/L EGTA, 0.02% Brij 35, 0.02 mg/mL bovine serum albumin, 2 mmol/L DTT, and 1% DMSO. The final concentration of ATP was 10 μmol/L. Purified recombinant kinases were incubated with serial 3-fold dilutions of test compounds starting at a final concentration of 1 μmol/L. ATP concentration was 10 μmol/L. Dose response curves were fitted using Prism 5.0 from Graph-Pad Software.
All these inhibitors were also tested by the same kinase assay using the Tarceva®-resistant EGFR kinase mutant, EGFR (L858R, T790M).

[2] = target: T2, EGFR (Homo sapiens, UniProt P00533); test: EGFR kinase assay, HotSpot technology; type: biochemical; design: purchased Reaction Biology Corp. (Malvern, Pa.); conditions: ATP 10 μmol/L, substrate poly[Glu:Tyr]
T2 sequence (P00533 25-1210): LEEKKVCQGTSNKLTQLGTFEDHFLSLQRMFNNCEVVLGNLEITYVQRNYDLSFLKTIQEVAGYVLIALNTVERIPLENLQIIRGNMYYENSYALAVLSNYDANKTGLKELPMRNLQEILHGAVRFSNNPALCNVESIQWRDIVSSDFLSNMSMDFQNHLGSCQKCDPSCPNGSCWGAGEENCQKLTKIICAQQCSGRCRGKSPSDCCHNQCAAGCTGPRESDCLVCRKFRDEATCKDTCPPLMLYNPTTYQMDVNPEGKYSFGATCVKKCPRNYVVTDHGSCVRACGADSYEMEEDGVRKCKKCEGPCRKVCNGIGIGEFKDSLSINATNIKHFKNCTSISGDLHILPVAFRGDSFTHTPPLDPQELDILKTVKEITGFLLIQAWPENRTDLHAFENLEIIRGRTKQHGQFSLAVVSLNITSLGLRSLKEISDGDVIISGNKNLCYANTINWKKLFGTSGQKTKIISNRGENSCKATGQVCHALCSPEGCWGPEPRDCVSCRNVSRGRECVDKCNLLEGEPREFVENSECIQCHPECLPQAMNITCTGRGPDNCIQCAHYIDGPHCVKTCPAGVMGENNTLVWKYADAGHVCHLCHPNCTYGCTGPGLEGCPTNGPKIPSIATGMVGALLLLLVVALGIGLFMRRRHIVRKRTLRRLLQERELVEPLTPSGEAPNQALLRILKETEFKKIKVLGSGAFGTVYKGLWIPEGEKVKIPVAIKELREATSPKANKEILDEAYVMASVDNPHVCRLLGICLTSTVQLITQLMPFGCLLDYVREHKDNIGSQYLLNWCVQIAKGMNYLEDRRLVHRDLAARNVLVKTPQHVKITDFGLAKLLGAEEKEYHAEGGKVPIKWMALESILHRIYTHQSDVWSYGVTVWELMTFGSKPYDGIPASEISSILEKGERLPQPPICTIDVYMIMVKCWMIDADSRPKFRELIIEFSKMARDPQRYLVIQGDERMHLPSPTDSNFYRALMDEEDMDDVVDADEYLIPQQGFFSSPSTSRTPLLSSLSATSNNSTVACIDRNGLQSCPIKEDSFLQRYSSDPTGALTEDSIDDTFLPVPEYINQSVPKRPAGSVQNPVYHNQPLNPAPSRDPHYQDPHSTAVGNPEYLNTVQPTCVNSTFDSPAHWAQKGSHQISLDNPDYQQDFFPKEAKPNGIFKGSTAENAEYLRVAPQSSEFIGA
Experimental: as §1

[3] = system: EGFR-over-expressing NE91 cells; test: Anchorage independent growth (soft agar colony formation) of NE91 cells; type: cell-based, mouse; conditions: 0.1 μM, colonies counted after 3 weeks, FIG. 4(D)
Experimental: To evaluate the inhibitory effect of C318 on cell proliferation in vitro, the compound was tested for inhibition of the anchorage independent growth of EGFR-over-expressing NE91 cells (FIG. 4). Anchorage independent growth was determined by assessing the colony-forming efficiency of cells suspended in soft agar. Cells (5×10^3) were suspended in a 1 ml top layer (0.375% agarose 10% FBS/DMEM) in 6-cm culture dishes containing a 3 ml cell-free feeder layer consisting of 0.5% agarose in DMEM supplemented with 10% FBS and 20 mM Hepes (pH 7.5). Culture dishes were fed by 0.7 ml 10% FBS/DMEM containing 0.1 uM of C318 or Tarceva® once every 5 days. Colonies were visualized and counted after 3 weeks after staining with p-iodonitrotetrazolium violet (1 mg/ml).

[4] = target: T2, EGFR; test: Phosphorylation of EGFR Tyr residues in NE91 cells (Western blot); type: cell-based; design: expressed in transfected cells; host or cells: NE91 mouse fibroblasts; conditions: FIG. 3
Experimental: NE91 cells (mouse fibroblasts over-expressing wild type human type EGFR) were starved overnight, incubated with an exemplary mutation mimicking compound (designated EEO3, see below; 0.1 μM; lanes 2, 6 of FIG. 2), Tarceva® (0.1 μM; lanes 3, 7 of FIG. 2), or both (lanes 4, 8 of FIG. 2) for one hour, and harvested (lanes 1-4 of FIG. 2), or induced with EGF (50 ng/mL) for 15 minutes and harvested. Equal amounts of total protein were loaded on 10% SDS-PAGE gel, separated, transferred to a PVDF membrane, and probed with pY99, pERK antibodies (Santa Cruz Biotechnology), or antibodies against specific phosphotyrosines of EGFR (pY845, pY1068, pY992) or AKT phosphor-serine (473; Cell Signaling Technology). Total EGFR and γ-tubulin levels were determined as controls using the 1005 (Santa Cruz Biotechnology) and GTU88 (Sigma) Abs, respectively.
To estimate the inhibitory activity of Compound C318 on EGFR signaling, its effect on the phosphorylation of specific Tyr residues of EGFR kinase was tested (see FIG. 3). The methods used were the same as described in Example 3.

T1 sequence (P00533 25-1210 T790M/L858R): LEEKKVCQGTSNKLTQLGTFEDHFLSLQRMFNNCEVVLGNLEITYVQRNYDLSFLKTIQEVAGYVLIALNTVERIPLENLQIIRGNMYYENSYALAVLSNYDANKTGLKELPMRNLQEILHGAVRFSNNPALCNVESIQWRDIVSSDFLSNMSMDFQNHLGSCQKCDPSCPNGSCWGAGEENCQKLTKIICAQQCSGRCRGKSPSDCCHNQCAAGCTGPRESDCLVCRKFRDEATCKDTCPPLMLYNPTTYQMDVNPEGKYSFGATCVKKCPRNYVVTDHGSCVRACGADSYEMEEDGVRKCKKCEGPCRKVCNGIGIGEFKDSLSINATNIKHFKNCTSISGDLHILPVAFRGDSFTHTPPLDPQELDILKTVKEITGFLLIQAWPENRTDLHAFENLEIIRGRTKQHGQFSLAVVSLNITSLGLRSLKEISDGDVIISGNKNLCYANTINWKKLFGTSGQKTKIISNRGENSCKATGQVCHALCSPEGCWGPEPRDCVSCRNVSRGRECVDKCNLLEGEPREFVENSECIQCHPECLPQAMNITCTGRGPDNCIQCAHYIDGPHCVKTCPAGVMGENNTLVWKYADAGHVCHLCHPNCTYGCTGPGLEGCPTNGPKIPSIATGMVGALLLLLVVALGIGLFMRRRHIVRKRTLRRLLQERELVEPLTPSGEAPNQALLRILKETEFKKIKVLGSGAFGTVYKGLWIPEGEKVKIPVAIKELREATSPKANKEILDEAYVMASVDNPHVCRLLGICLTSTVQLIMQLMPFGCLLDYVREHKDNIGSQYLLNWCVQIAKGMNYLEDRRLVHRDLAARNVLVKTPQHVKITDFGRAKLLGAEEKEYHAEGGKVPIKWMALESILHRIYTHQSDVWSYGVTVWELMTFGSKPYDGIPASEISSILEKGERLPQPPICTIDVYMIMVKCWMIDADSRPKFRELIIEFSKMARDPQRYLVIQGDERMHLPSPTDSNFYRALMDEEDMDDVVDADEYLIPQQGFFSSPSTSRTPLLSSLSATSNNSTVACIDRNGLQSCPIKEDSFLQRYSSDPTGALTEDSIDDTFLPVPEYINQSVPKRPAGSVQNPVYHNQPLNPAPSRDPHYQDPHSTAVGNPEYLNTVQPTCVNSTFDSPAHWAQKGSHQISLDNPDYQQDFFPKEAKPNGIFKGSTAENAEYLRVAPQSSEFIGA

## O=C(O)CC(Sc1nn(CC(=O)Nc2ccc3ncnc(Nc4cc(Cl)c(Cl)cc4F)c3c2)c(=S)s1)C(=O)O (stereo not shown) [Compound C318N, 2-([4-[([4-[(4,5-dichloro-2-fluorophenyl)amino]quinazolin-6-yl]carbamoyl)methyl]-5-sulfanylidene-4,5-dihydro-1,3,4-thiadiazol-2-yl]sulfanyl)butanedioic acid]
[1]; FIG. 7
  activity to inhibit EGFR (L858R, T790M) kinase, comparison: better activity than C318
[1]; at 100 nM, ATP 10 μmol/L
  inhibition at 0.1 µM: ~20%
[2]
  IC50: 500 to 1000 pM

## O=C(O)CC(Sc1nnc(SCC(=O)Nc2ccc3ncnc(Nc4cc(Cl)c(Cl)cc4F)c3c2)s1)C(=O)O (stereo not shown) [Compound C318]
[3]
  inhibition of anchorage independent growth: more active than Tarceva®
[1]; at 100 nM, ATP 10 μmol/L
  inhibition of EGFR(L858R, T790M): about the same inhibition as Tarceva®
[2]
  IC50: 500 to 1000 pM
[4]; compared with Tarceva
  inhibition of phosphorylation of Tyr 992 of EGFR: but not Tyr 992
  inhibition of phosphorylation of Tyr 1068 of EGFR: stronger activity than Tarceva®

## O=C(CSc1nnc(SCC2CC2)s1)Nc1ccc2ncnc(Nc3cc(Cl)c(Cl)cc3F)c2c1 [Compound C318F]
[4]
  inhibitory effects on EGFR Tyr phosphorylation relative to C-318: not as strong as that of C-318

## O=C(CSCCO)Nc1ccc2ncnc(Nc3cc(Cl)c(Cl)cc3F)c2c1 [Compound C300]
[4]
  inhibitory effects on EGFR Tyr phosphorylation relative to C-318: not as strong as that of C-318
